Test results as given in DBAASP.
Converted amounts (≈) assume the structure as drawn. Blank lines part the entries; values can stand above or below the molecule they belong to.

Assays:
Experiment in all cases: ≥ marks a high value that may be exact or a test limit, other limits are often not marked, values filed in µg/mL are converted to µM
[1] = test system: Candida albicans ATCC 10231
[2] = test system: Candida albicans ATCC 90028
[3] = test system: Cutibacterium acnes ATCC 11828
[4] = test system: Cutibacterium acnes ATCC 15725
[5] = test system: Cutibacterium acnes ATCC 18380
[6] = test system: Cutibacterium acnes ATCC 29903
[7] = test system: Cutibacterium acnes ATCC 31766
[8] = test system: Cutibacterium acnes ATCC 32548
[9] = test system: Cutibacterium acnes ATCC 33257
[10] = test system: Cutibacterium acnes ATCC 50247
[11] = test system: Enterococcus faecalis NCTC 12697
[12] = test system: Escherichia coli ATCC 25726
[13] = test system: Escherichia coli ATCC 8739
[14] = test system: Escherichia coli ATCC BAA-2340
[15] = test system: Klebsiella pneumoniae ATCC 43816
[16] = test system: Klebsiella pneumoniae ATCC BAA-1705
[17] = test system: Pseudomonas aeruginosa ATCC 9027
[18] = test system: Pseudomonas aeruginosa B004 V2S2B
[19] = test system: Staphylococcus aureus ATCC 25923
[20] = test system: Staphylococcus aureus ATCC 6538
[21] = test system: Staphylococcus aureus NCTC 12493
Staphylococcus aureus = test system: Staphylococcus aureus
[22] = test system: Acinetobacter baumannii ATCC 19606
[23] = test system: Escherichia coli ATCC 25922
Escherichia coli D21 = test system: Escherichia coli D21
Micrococcus luteus = test system: Micrococcus luteus
[24] = test system: Pseudomonas aeruginosa ATCC 27853
[25] = test system: Staphylococcus aureus II ATCC 6538P
[26] = test system: Staphylococcus epidermidis LT1324
Staphylococcus simulans = test system: Staphylococcus simulans
Escherichia coli K-12 = test system: Escherichia coli K-12
Escherichia coli L- = test system: Escherichia coli L-
[27] = test system: Klebsiella pneumoniae CIP 8291
[28] = test system: Lactococcus lactis subsp. cremoris I116
Listeria ivanovii LMA 94 = test system: Listeria ivanovii LMA 94
[29] = test system: Staphylococcus aureus CIP 677
[30] = test system: Staphylococcus aureus USA 300
[31] = test system: Enterobacter cloacae BCRC 10401
[32] = test system: Escherichia coli BCRC 10675
[33] = test system: Klebsiella aerogenes BCRC 10370
[34] = test system: Klebsiella oxytoca BCRC 13985
Lactococcus garvieae = test system: Lactococcus garvieae
[35] = test system: Listeria monocytogenes BCRC 14845
[36] = test system: Pseudomonas aeruginosa BCRC 10944
[37] = test system: Staphylococcus aureus BCRC 10780
[38] = test system: Staphylococcus aureus BCRC 10781
[39] = test system: Staphylococcus xylosus BCRC 12930
[40] = test system: Streptococcus equinus BCRC 14729
Streptococcus iniae = test system: Streptococcus iniae
[41] = test system: Vibrio alginolyticus BCRC 12829
Vibrio alginolyticus = test system: Vibrio alginolyticus
[42] = test system: Vibrio anguillarum serotype O1
Vibrio harveyi = test system: Vibrio harveyi
[43] = test system: Vibrio parahaemolyticus BCRC 10806
Vibrio parahaemolyticus = test system: Vibrio parahaemolyticus
[44] = test system: Yersinia enterocolitica BCRC 13999

MIC [1]: > 512 µM
MIC [2]: ≥ 64 µM
MIC [3]: 12.5 µM (≈ 39 µg/mL)
MIC [4]: 25 µM (≈ 78.1 µg/mL)
MIC [5]: 12.5 µM (≈ 39 µg/mL)
MIC [6]: 25 µM (≈ 78.1 µg/mL)
MIC [7]: 6 µM (≈ 18.7 µg/mL)
MIC [8]: 25 µM (≈ 78.1 µg/mL)
MIC [9]: 6 µM (≈ 18.7 µg/mL)
MIC [10]: 6 µM (≈ 18.7 µg/mL)
MIC [11]: ≥ 512 µM
MIC [12]: ≥ 32 µM
MIC [13]: 16 µM (≈ 50 µg/mL)
MIC [14]: ≥ 32 µM
MIC [15]: ≥ 128 µM
MIC [16]: ≥ 512 µM
MIC [17]: 128 µM (≈ 400 µg/mL)
MIC [18]: ≥ 512 µM
MIC [19]: 64 µM (≈ 200 µg/mL)
MIC [20]: 32 µM (≈ 100 µg/mL)
MIC [21]: ≥ 512 µM
MIC (Staphylococcus aureus): > 512 µM
Compound: CC[C@H](C)[C@H](NC(=O)[C@@H](NC(=O)CN)C(C)C)C(=O)N[C@H](C(=O)N[C@@H](CC(=O)O)C(=O)N[C@H](C(=O)N[C@@H](CC(C)C)C(=O)N[C@@H](CCCCN)C(=O)NCC(=O)N[C@@H](C)C(=O)N[C@@H](C)C(=O)N[C@@H](CCCCN)C(=O)N[C@H](C(=O)N[C@H](C(=O)N[C@@H](C)C(=O)N[C@@H](C)C(=O)N[C@@H](CCC(=O)O)C(=O)N[C@@H](CC(C)C)C(=O)N[C@@H](CC(C)C)C(=O)N[C@@H](CCCN=C(N)N)C(=O)N[C@@H](CCCCN)C(=O)N[C@@H](C)C(=O)N[C@@H](Cc1cnc[nH]1)C(=O)N[C@H]1CSSC[C@@H](C(=O)O)NC(=O)[C@H](CO)NC(=O)[C@H](CC(N)=O)NC(=O)[C@H]([C@@H](C)O)NC(=O)[C@H](CC(C)C)NC(=O)[C@H](CCCCN)NC1=O)C(C)C)[C@@H](C)O)[C@@H](C)O)[C@@H](C)CC [GVIIDTLKGAAKTVAAELLRKAHCKLTNSC]

MIC [22]: 50 µM (≈ 90.2 µg/mL)
MIC [23]: 50 µM (≈ 90.2 µg/mL)
MIC (Escherichia coli D21): ≥ 50 µM
MIC (Micrococcus luteus): 16 µM (≈ 28.9 µg/mL)
MIC [24]: > 50 µM
MIC [25]: ≥ 50 µM
MIC [26]: ≥ 32 µM
MIC (Staphylococcus simulans): ≥ 32 µM
Compound: CC(C)C[C@H](NC(=O)[C@H](CC(C)C)NC(=O)[C@H](CC(C)C)NC(=O)[C@H](CC(C)C)NC(=O)[C@H](CC(C)C)NC(=O)[C@H](CC(C)C)NC(=O)[C@H](CC(C)C)NC(=O)[C@H](CC(C)C)NC(=O)[C@H](CC(C)C)NC(=O)[C@H](CCCCN)NC(=O)[C@H](CCCCN)NC(=O)[C@@H](N)CCCCN)C(=O)N[C@@H](CCCCN)C(=O)N[C@@H](CCCCN)C(=O)N[C@@H](CCCCN)C(N)=O [KKKLLLLLLLLLKKK]

Compound: CC[C@H](C)[C@H](NC(=O)[C@H](CCCCN)NC(=O)CNC(=O)[C@H](CC(C)C)NC(=O)[C@@H](NC(=O)[C@H](C)NC(=O)[C@H](CCCCN)NC(=O)CNC(=O)[C@H](C)NC(=O)CNC(=O)[C@H](CCCCN)NC(=O)[C@@H](NC(=O)[C@H](CCCCN)NC(=O)[C@@H](NC(=O)[C@H](Cc1c[nH]c2ccccc12)NC(=O)[C@H](CC(C)C)NC(=O)[C@H](CCC(=O)O)NC(=O)[C@H](CCCCN)NC(=O)[C@H](CC(C)C)NC(=O)[C@@H](N)CC(C)C)[C@@H](C)O)[C@@H](C)CC)C(C)C)C(=O)N[C@@H](CCCCN)C(=O)NCC(=O)N[C@@H](CC(C)C)C(=O)N[C@@H](CC(C)C)C(=O)O [LLKELWTKIKGAGKAVLGKIKGLL]
MIC (Escherichia coli K-12): 25 µM (≈ 64.5 µg/mL)
MIC (Escherichia coli L-): ≥ 64 µM
MIC [27]: ≥ 32 µM
MIC [28]: 2 µM (≈ 5.16 µg/mL)
MIC (Listeria ivanovii LMA 94): 4 µM (≈ 10.3 µg/mL)
MIC [29]: ≥ 32 µM
MIC [30]: ≥ 85 µM

MIC [31]: 3.5 µM (≈ 8 µg/mL)
MIC [32]: 3.5 µM (≈ 8 µg/mL)
MIC [33]: 7 µM (≈ 16 µg/mL)
MIC [34]: 7 µM (≈ 16 µg/mL)
MIC (Lactococcus garvieae): 14 µM (≈ 32 µg/mL)
MIC [35]: 7 µM (≈ 16 µg/mL)
MIC [36]: 14 µM (≈ 32 µg/mL)
MIC [37]: 7 µM (≈ 16 µg/mL)
MIC [38]: 14 µM (≈ 32 µg/mL)
MIC [39]: 3.5 µM (≈ 8 µg/mL)
MIC [40]: ≥ 56 µM
MIC (Streptococcus iniae): 28 µM (≈ 64 µg/mL)
MIC [41]: ≥ 56 µM
MIC (Vibrio alginolyticus): 1.75 µM (≈ 4 µg/mL)
MIC [42]: 1.75 µM (≈ 4 µg/mL)
MIC (Vibrio harveyi): 3.5 µM (≈ 8 µg/mL)
MIC [44]: 14 µM (≈ 32 µg/mL)
Compound: CC(C)C[C@H](NC(=O)[C@H](C)NC(=O)[C@H](CC(N)=O)NC(=O)[C@H](C)NC(=O)[C@H](Cc1ccccc1)NC(=O)[C@H](CCCCN)NC(=O)[C@H](CCCCN)NC(=O)[C@H](C)NC(=O)[C@H](CC(C)C)NC(=O)[C@H](CC(N)=O)NC(=O)[C@H](C)NC(=O)[C@H](CC(C)C)NC(=O)[C@H](CCCCN)NC(=O)[C@H](CCCCN)NC(=O)[C@H](C)NC(=O)[C@H](Cc1ccc(O)cc1)NC(=O)[C@H](CC(N)=O)NC(=O)[C@H](Cc1ccc(O)cc1)NC(=O)CN)C(=O)N[C@@H](Cc1c[nH]c2ccccc12)C(=O)O [GYNYAKKLANLAKKFANALW]
MIC [43]: ≥ 56 µM
MIC (Vibrio parahaemolyticus): 1.75 µM (≈ 4 µg/mL)
